By LD50 is commonly meant the dose expected to kill half of the subjects tested.

The values below come from patent US4647587A, “Method for treatment of antidiuresis employing serine derivatives” (Sumitomo Pharmaceuticals Company, Limited, priority 1984, dated 1987).

For series [1] the following is noted: clinical tests; U.S. Pat. No. 4,330,558; cited from earlier work.
Series [2] in a line: Acute toxicity by oral dosage to mouse. Particulars: in vivo.
The conditions of series [3]: clinical tests; U.S. Pat. No. 4,497,826; cited from earlier work.
Series [4] in a line: Acute toxicity by oral dosage to rat. Particulars: in vivo.
Series [5] can be described thus: Diuretic action (general statement). The series is classed as in vivo. The conditions noted are these: for diuretic action (in words): in vivo.
Series [6] is described as follows: Acute toxicity by oral dosage to dog. Particulars: in vivo.
The conditions of series [7]: animals; U.S. Pat. No. 3,920,728; cited from earlier work.
Series [8] has as its system aromatic L-amino acid decarboxylase. Particulars: cited from earlier work; for NA isomer formed: in vivo.
The conditions of series [9]: U.S. Pat. No. 4,529,603; cited from earlier work.
Series [10] is described as follows: Effect of periphery decarboxylase inhibitor (DCI) on diuretic action of L-threo-DOPS (Experimental Example 3). The series is classed as in vivo, rats. Particulars: for effect on diuretic action of L-threo-DOPS when used together (in words): p.o. at the same time with L-threo-DOPS.
Experimental: Investigation was made on the effect of L-threo-DOPS on diuretic action when DCI, benserazide or carbidopa was dosed by oral administration at the same time, as in the same manner as Experimental Example 1.
A further series has as its system harmaline induced tremor. Particulars: Japanese Patent Publication 125630/1977; cited from earlier work.
The nature of series [11]: Effect of L-threo-DOPS on urinary volume of mice (Experimental Example 2). The class given is in vivo. Particulars: FIG. 2. Here is the method: (§1) The ordinate represents the urinary volume (ml/kg/3 hr) and the abscissa, the amount of dosage of L-threo-DOPS (mg/kg).
(§2) In FIG. 1 and FIG. 2, the mark * represents p<0.05 (compared with the control group).
Ten mice starved for 17 hours were arranged to form a group. Ten mg/kg, 30 mg/kg, and 100 mg/kg of L-threo-DOPS were suspended in a 0.5% aqueous solution of methyl cellulose, respectively, and orally administered together with […] of isotonic sodium chloride solution. To the control groups were dosed only 0.5% aqueous solution of methyl cellulose and isotonic sodium chloride solution.

Series [12] can be described thus: Effect of L-threo-DOPS on electrolytes in urine of rats (Experimental Example 1). The class given is in vivo. The conditions noted are these: for amount of Cl^- in urine / amount of K^+ in urine / amount of Na^+ in urine: 3 hours, average of 5 groups±S.E. Here is the method:
(§3) Three rats starved for 17 hours were arranged to form a group. Ten mg/kg, 30 mg/kg, and 100 mg/kg of L-threo-DOPS were suspended in a 0.5% aqueous solution of methyl cellulose, respectively, and orally administered together with 25 ml/kg of isotonic sodium chloride solution. To the control groups were dosed only 0.5% aqueous solution of methyl cellulose and isotonic sodium chloride solution. The urinary volume was measured through 3 hours after the dosage. In addition, among electrolytes in the urine, amounts of sodium ion (Na^+) and potassium ion (K^+) were measured by a flame photometer, and an amount of chlorine ion (Cl^-) by the method of Zall et al. (Anal. Chem. 28, 1665).
In the table, values are represented in a unit of mEq/kg/3 hr and as the average of 5 groups±S.E.

For series [13] the following is noted: rats; Araki et al. 1978; cited from earlier work.
A short description of series [14]: Amount of NA in the kidney and heart of rats after the dosage of L-threo-DOPS (Experimental Example 4). The series is classed as in vivo. As to the method: To the rats were dosed 30 mg/kg of L-threo-DOPS by oral adminstration, and the amount of NA in the kidney and heart after 1 hour was measured.
The method for the measurement was nearly in accordance with the method of Suzuki, et al. (Europ. J. Clin. Pharmacol., 23, 463, 1982).

The conditions of series [15]: rats; Araki et al. 1981; cited from earlier work.
The nature of series [16]: Effect of L-threo-DOPS on urinary volume of rats (Experimental Example 1). The series is classed as in vivo. The conditions noted are these: rats, 10, 30, 100 mg/kg p.o., 3 hours, FIG. 1. Here is the method:
as §1, §2, §3

A further series deals with renal blood vessel. The conditions noted are these: in vivo; cited from earlier work.
Where [17] appears, read: rats, 30 mg/kg p.o., after 1 hour, average of 5 rats±S.E.

Take `N[C@H](C(=O)O)[C@H](O)c1ccc(O)c(O)c1` (relative stereo) [DL-threo-DOPS]: the “effect on orthostatic hypotension” value in series [1] was “beneficial effects”. Also, the LD50 in series [2], in series [4] and in [6] was not below 10000 mg/kg each time. Moreover, in series [3], the “effect on freezing phenomena of Parkinson's disease” value is “beneficial effects”. In addition, the “diuretic action (in words)” value in series [5] is “significant diuretic action”.
`N[C@H](C(=O)O)[C@@H](O)c1ccc(O)c(O)c1` (relative stereo) [erythro-DOPS, reference compound]: in [7], the “antihypertensive or antidepressive effect” value was “antihypertensive or antidepressive effect”.
On to `N[C@H](C(=O)O)[C@H](O)c1ccc(O)c(O)c1` (relative stereo) [threo-DOPS, threo-3-(3,4-dihydroxyphenyl)-serine], for which the “antihypertensive or antidepressive effect” value in series [7] is “antihypertensive or antidepressive effect”.
Take `N[C@H](C(=O)O)C(O)c1ccc(O)c(O)c1` (stereo partly drawn) [L-DOPS]: the “conversion to noradrenaline in vivo” value in [8] (by aromatic L-amino acid decarboxylase) is given as “converted to noradrenaline”.
As to `N[C@H](C(=O)O)[C@@H](O)c1ccc(O)c(O)c1` [L-erythro-DOPS], the NA isomer formed entry in series [8] is “unnatural type d-NA”. In [9], the “effect on psychmotor excitement” value is on record as “suppressive effect”.
For the molecule `N[C@H](C(=O)O)[C@H](O)c1ccc(O)c(O)c1` [L-threo-DOPS], the Urinary volume in series [10] (L-threo-DOPS 30 mg/kg p.o. alone, average of 5 groups±S.E.) is given as 51.9 ± 3.0 ml/kg/3 hr. Further, in [1], the “effect on orthostatic hypotension” value is listed as “beneficial effects”. Also, the LD50 in [2], in [4] and in series [6] was not below 10000 mg/kg throughout. Moreover, the “effect on harmaline induced tremor” value with harmaline induced tremor is “inhibitory effect”. The “effect on freezing phenomena of Parkinson's disease” value in series [3] was “beneficial effects”. Further, the NA isomer formed result in [8] is “natural type l-NA”. Further, in [5] (easy manner such as oral administration), the “course of diuretic action (in words)” value is “uniformly and prolongably”. Moreover, the “diuretic action (in words)” value in series [5] is “significant diuretic action”. Also, the “urinary volume (in words)” value is “increases the urinary volume in accordance with the amount of dosage” in series [11] (mice, 10, 30, 100 mg/kg p.o.) and “Increase in the urinary volume was recognized in accordance with the amount of dosage” in series [16]. The “urinary volume, significance (in words)” value in series [11] (mice, group dosed 100 mg/kg p.o.) is given as “significant”. The “amount of Cl^- in urine” value in series [12] (10 mg/kg p.o.) amounted to 1.89 ± 0.14 mEq/kg/3 hr; in series [12] (30 mg/kg p.o.) it was 2.97 ± 0.25 mEq/kg/3 hr; in [12] (100 mg/kg p.o.) it was 3.24 ± 0.07 mEq/kg/3 hr. In addition, the “amount of K^+ in urine” value amounted to 0.32 ± 0.03 mEq/kg/3 hr in [12] (10 mg/kg p.o.), 0.37 ± 0.05 mEq/kg/3 hr in [12] (30 mg/kg p.o.) and 0.45 ± 0.03 mEq/kg/3 hr in series [12] (100 mg/kg p.o.). Also, the “amount of Na^+ in urine” value in series [12] (10 mg/kg p.o.) is listed as 1.58 ± 0.12 mEq/kg/3 hr; in [12] (30 mg/kg p.o.) it was 2.45 ± 0.32 mEq/kg/3 hr; in series [12] (100 mg/kg p.o.), 3.15 ± 0.07 mEq/kg/3 hr. Moreover, the “amount of Na^+ in urine (in words)” value in series [12] (groups dosed 10 mg/kg or more p.o.) was “significantly increases”. Besides, the “amount of Cl^- in urine (in words)” value in series [12] (only in groups dosed 30 mg/kg or more p.o.) was “significantly increased”. Also, the “amount of K^+ in urine (in words)” value is “significant increase” in series [12] (only in the group dosed 100 mg/kg p.o.) and “not so much influenced” in [12] (p.o., doses in general). For the same molecule, the positive chronotropic effect result in series [13] is given as “positive chronotropic effect”. In series [14] (30 mg/kg p.o.), the “NA in the heart (in words)” value was “no influence”. In [14] (30 mg/kg p.o.), the “amount of NA in the kidney (in words)” value is given as “markedly increases”. Besides, the “NA concentration in the kidney compared with those in other organs (in words)” value in [14] (rat, in vivo) is “significantly increased”. Moreover, in series [14] (setting [17]), the “amount of NA in the heart” value was determined as 1.00 ± 0.06 ng/g wet weight. For the same molecule, the “amount of NA in the kidney” value in [14] (setting [17]) is recorded as 1.80 ± 0.35 ng/g wet weight. Also, the pressor effect entry in series [15] is “pressor effect”.
With `NC(CO)C(=O)NNCc1ccc(O)c(O)c1O` (stereo not drawn) [benserazide], in [10], the “effect on diuretic action of L-threo-DOPS when used together (in words)” value was “significantly decreased”.
Take `C[C@@](Cc1ccc(O)c(O)c1)(NN)C(=O)O` [carbidopa]: in series [10], the “effect on diuretic action of L-threo-DOPS when used together (in words)” value was “significantly decreased”.
As to `NC[C@H](O)c1ccc(O)c(O)c1` [l-NA], in the series with renal blood vessel, the “action on the renal blood vessel” value is listed as “contractive action” and the “effect on renal blood flow” value is “decrease in the renal blood flow”.
